This note sets out measurements from US5614627A, “Quinazoline compounds” (Eisai Co., Ltd., priority 1993, dated 1997).

The target of this experiment is T1, calmodulin-dependent cGMP-phosphodiesterase (CaM-PDE) (Sus scrofa, UniProt A0A5G2RLV3).
T1 construct: prepared from swine aorta; from tissue; host or cells: swine aorta
As to the kind of experiment: enzyme-inhibitory activity with calmodulin-dependent cGMP-phosphodiesterase (CaM-PDE) obtained from swine aorta. In kind it is biochemical. Particulars: 1 μM cGMP as substrate, 1 mM Ca++, calmodulin 250 U/ml, DMSO 4% or below. As to the method:
Study on enzyme-inhibitory activity with calmodulin-dependent cGMP-phosphodiesterase obtained from swine aorta The enzyme activity of calmodulin-dependent cGMP-phosphodiesterase (hereinafter referred to CaM-PDE) prepared from swine aorta was determined according to the method of Thompson et al. The emzyme activity was determined in the presence of 1 mM of calcium ion (Ca^++) and calmodulin (250 U/ml) by the use of 1 μM of cGMP as the substrate. The compound of the present invention was dissolved in DMSO and added to the reaction liquid. The final concentration of DMSO in the reaction solution was adjusted to 4% or below. The preparation of the CaM-PDE was effected according to the method [[…]. and Saito, I., Isolation of cyclic nucleotide phosphodiesterase isozymes from pig aorta, Biochem. Pharmacol. in press] by the use of swine aorta. The CaM-PDE inhibitory activity of the compounds of the present invention as determined by the above method are given in Table 1.

pIC50: −log10 of the molar value. Structures can show the parent of a compound that is named as a salt.

Consider `COc1cc2c(NCCCC(=O)O)ncnc2c(OC)c1OC` [Example 2, 4-(3-Carboxypropyl)amino-6,7,8-trimethoxyquinazoline], for which the pIC50 – broadly, −log10 of the IC50, conventionally taken in molar units – is 6.32.
In the case of `CCOC(=O)CCCCCNc1ncnc2c(OC)c(OC)c(OC)cc12` [Example 3, 4-(5-Ethoxycarbonylpentyl)amino-6,7,8-trimethoxyquinazoline], the pIC50 was 5.63.
`CCOC(=O)CCNc1ncnc2c(OC)c(OC)c(OC)cc12` [Example 7, 4-(2-Ethoxycarbonylethyl)amino-6,7,8-trimethoxyquinazoline] had a pIC50 of 5.34.
For `O=C(O)CCCCCNc1ncnc2ccc(Cl)cc12` [Example 10, 4-(5-Carboxypentyl)amino-6-chloroquinazolne] the value was 4.27; for `COc1cc2c(NCCCCCCC(=O)O)ncnc2c(OC)c1OC` [Example 12, 4-(6-Carboxyhexyl)amino-6,7,8-trimethoxyquinazoline], 5.46.
Regarding `COc1cc2c(NCCC(=O)O)ncnc2c(OC)c1OC` [Example 13, 4-(2-Carboxyethyl)amino-6,7,8-trimethoxyquinazoline], the pIC50 is 5.63.
Next, `COc1cc2c(NCCCCC(=O)O)ncnc2c(OC)c1OC` [Example 14, 4-(4-Carboxybutyl)amino-6,7,8-trimethoxyuinazoline]: 5.89; `COc1cc2c(NCCCCCCCC(=O)O)ncnc2c(OC)c1OC` [Example 15, 4-(7-Carboxyheptyl)amino-6,7,8,-trimethoxyquinazoline]: 5.44.
Next, `COc1cc2c(NCCCCCC(=O)O)ncnc2c(OC)c1OC` [Example 16, 4-(5-Carboxypentyl)amino-6,7,8-trimethoxyquinazoline]: 5.78.
For the compound `COc1cc2c(N(C)CCCC(=O)O)ncnc2c(OC)c1OC` [Example 18, 4-[N-(3-Carboxypropyl)-N-methylaminol-]6,7,8, -trimethoxyquinazoline], the pIC50 is 6.14.
Consider `COc1cc2c(N3CCC(C(=O)O)CC3)ncnc2c(OC)c1OC` [Example 20, 4-(4-Carboxypiperidino)-6,7,8-trimethoxyquinazoline], for which the pIC50 is 6.38.
`COc1cc2c(NCCCCC#N)ncnc2c(OC)c1OC` [Example 32, 4-(4-Cyanobutyl)amino-6,7,8-trimethoxyquinzaoline]: the pIC50 was 5.19.
`COc1cc2c(NCCCO)ncnc2c(OC)c1OC` [Example 35, 4-(3-Hydroxypropyl)amino-6,7.8-trimethoxyquinazoline] had a pIC50 of 5.72.
Next, `Clc1ccc2ncnc(NCCCn3ccnc3)c2c1` [Example 38, 6-Chloro-4-[3-(imidazol-1-yl)propyl]aminoquinazoline]: 5.10.
Next, `CCCNc1ncnc2c(OC)c(OC)c(OC)cc12` [Example 40, 4-Propylamino-6,7-trimethoxyquinazoline]: 6.77.
Next, `CCN(CC)c1ncnc2c(OC)c(OC)c(OC)cc12` [Example 41, 4-Diethylamino-6,7,8-trimethoxyquinazoline hydrochloride]: 6.52; `CCN(CC)c1ncnc2c(OC)cc(OC)cc12` [Example 43, 4-Diethylamino-6,8-dimethoxyquinazoline hydrochloride]: 6.13; `CCN(CC)c1nc(Cl)nc2c(OC)c(OC)c(OC)cc12` [Example 51, 2-Chloro-4-diethylamino-6,7,8-trimethoxyquinazoline]: 5.37.
`COc1cc2c(N3CCC(C(=O)c4ccc(F)cc4)CC3)ncnc2c(OC)c1OC` [Example 57, 4-[4-(4-Fluorobenzoyl)piperidino]-6,7,8-trimethoxyquinazoline] gave a pIC50 of 4.94.
For `COc1cc2c(N3CCC(C(O)c4ccc(F)cc4)CC3)ncnc2c(OC)c1OC` (stereo not drawn) [Example 58, 4-[4-(4-Fluoro-α-hydroxybenzyl)piperidino]-6,7,8-trimethoxyquinazolin] the value was 5.55; for `COc1cc2c(N3CCC(=O)CC3)ncnc2c(OC)c1OC` [Example 61, 4-(4-Oxopiperidino)-6,7,8-trimethoxyquinazoline], 5.96.
Next, `COc1cc2c(N3CCC(O)CC3)ncnc2c(OC)c1OC` [Example 62, 4-(4-Hydroxypiperidino)-6,7,8-trimethoxyquinazoline]: 6.13; `COc1cc2c(N3CCN(c4ncccn4)CC3)ncnc2c(OC)c1OC` [Example 65, 4-[4-(2-Pyrimidyl)piperazin-1-yl]-6,7,8-trimethoxyquinazoline]: 4.97.
Next, `COc1cc2c(N3CCOCC3)ncnc2c(OC)c1OC` [Example 68, 4-Morpholino-6,7,8-trimethoxyquinazoline hydrochloride]: 5.40.
